Assay results as given in publication PMC7707092, “Discovery and characterization of ORM‐11372, a novel inhibitor of the sodium‐calcium exchanger with positive inotropic activity” (British Journal of Pharmacology, 2020).
“Also recorded” adds a separate entry of the source.

Tests used:
[1] = biological target: T1, L‐type Ca^2+ channel current (I CaL) (Rattus norvegicus, UniProt P22002); assay: L‐type calcium current (I CaL), patch‐clamp in rat ventricular myocytes; type: cell-based; conditions: for effect on calcium current (ICaL) at various test potentials: rat cardiomyocytes; for inhibition at 10 µM: rat ventricular CMs
T1 construct: the inward calcium current (ICaL) in isolated rat cardiomyocytes; endogenous in cells; host or cells: freshly isolated left ventricular cardiomyocytes of male Wistar rats
T1 sequence (P22002 whole entry, other chains not shown): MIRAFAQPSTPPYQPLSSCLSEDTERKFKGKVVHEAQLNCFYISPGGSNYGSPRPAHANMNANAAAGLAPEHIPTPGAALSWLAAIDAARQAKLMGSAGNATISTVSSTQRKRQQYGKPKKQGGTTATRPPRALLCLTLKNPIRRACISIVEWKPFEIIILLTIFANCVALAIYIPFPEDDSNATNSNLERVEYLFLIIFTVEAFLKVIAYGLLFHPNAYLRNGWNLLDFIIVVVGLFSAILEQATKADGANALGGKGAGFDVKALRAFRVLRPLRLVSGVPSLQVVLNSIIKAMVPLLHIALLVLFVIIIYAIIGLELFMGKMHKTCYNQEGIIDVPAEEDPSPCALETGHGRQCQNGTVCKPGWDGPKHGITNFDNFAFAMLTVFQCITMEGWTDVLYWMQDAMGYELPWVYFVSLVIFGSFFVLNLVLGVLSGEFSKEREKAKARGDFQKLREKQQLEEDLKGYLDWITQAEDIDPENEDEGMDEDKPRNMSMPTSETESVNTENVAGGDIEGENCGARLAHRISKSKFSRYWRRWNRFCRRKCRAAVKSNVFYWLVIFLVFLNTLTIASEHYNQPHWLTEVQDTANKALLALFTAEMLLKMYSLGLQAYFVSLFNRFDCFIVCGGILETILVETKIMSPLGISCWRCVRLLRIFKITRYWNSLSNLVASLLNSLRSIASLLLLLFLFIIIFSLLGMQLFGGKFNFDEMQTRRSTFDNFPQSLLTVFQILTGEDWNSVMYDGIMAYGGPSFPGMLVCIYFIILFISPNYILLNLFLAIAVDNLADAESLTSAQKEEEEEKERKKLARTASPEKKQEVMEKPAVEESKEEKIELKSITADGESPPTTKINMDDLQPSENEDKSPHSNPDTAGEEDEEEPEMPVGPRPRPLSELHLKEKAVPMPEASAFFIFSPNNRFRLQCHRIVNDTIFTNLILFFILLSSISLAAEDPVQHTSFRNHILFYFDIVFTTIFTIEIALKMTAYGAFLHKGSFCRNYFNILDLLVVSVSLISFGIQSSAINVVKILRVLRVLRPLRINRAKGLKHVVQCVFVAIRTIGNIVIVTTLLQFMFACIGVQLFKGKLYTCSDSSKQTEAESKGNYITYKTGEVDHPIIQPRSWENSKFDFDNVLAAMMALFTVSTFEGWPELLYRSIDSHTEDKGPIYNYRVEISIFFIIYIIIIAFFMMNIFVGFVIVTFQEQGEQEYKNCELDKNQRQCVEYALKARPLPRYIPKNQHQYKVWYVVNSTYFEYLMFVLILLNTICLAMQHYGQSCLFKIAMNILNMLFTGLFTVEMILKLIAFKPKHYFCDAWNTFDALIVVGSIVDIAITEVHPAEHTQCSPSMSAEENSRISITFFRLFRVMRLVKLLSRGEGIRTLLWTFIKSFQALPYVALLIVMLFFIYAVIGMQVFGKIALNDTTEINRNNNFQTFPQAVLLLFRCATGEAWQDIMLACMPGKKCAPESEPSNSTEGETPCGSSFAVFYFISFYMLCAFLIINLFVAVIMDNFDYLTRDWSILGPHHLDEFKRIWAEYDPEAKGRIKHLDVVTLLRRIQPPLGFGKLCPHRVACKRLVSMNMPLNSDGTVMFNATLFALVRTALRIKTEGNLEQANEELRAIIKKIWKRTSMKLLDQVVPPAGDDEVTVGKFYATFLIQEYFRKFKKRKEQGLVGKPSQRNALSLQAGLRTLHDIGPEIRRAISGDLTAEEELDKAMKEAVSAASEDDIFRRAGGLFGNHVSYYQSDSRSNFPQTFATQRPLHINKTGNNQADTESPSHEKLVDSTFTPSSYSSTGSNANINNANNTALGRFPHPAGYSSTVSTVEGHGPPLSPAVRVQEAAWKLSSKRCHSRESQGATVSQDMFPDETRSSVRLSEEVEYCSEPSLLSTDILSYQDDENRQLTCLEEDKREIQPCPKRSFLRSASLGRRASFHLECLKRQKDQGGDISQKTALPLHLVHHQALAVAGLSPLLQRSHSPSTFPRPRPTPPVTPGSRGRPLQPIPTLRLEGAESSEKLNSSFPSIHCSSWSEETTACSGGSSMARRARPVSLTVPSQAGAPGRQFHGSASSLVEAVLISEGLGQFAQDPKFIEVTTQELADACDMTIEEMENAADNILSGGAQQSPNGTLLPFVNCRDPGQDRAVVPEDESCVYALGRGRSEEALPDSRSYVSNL
T1 sequence (P54290 25-1091 partner, other chains not shown): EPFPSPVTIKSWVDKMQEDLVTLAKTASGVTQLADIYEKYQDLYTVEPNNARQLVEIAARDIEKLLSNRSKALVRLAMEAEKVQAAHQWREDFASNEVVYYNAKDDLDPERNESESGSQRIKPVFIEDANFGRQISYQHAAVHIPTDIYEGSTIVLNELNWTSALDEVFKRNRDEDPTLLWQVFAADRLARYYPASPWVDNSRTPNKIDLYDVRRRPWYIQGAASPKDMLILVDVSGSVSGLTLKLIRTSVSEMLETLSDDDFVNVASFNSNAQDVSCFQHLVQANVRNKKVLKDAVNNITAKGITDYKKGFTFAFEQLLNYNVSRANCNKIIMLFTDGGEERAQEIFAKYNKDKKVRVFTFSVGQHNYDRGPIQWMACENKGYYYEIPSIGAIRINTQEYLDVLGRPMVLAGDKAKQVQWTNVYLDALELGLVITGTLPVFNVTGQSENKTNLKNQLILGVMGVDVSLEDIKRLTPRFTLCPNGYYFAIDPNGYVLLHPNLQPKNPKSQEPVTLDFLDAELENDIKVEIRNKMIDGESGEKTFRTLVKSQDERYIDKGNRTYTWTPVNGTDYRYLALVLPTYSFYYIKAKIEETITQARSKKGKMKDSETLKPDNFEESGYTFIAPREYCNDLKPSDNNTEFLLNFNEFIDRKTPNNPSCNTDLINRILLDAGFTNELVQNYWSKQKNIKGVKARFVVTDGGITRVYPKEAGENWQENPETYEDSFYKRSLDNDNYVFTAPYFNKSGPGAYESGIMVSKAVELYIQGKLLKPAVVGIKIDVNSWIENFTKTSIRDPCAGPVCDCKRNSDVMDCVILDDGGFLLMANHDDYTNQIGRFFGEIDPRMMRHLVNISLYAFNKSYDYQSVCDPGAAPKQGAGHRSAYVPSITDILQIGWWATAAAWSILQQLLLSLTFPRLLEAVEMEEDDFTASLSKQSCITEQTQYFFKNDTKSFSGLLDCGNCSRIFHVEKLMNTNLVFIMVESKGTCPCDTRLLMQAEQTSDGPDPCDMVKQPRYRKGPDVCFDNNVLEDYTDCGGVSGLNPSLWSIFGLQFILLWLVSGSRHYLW
Description: Manual patch‐clamp recordings of membrane currents (I NCX, L‐type Ca^2+ channel current [I CaL], human cardiac sodium 1.5 current [I Na], and I hERG) were undertaken using either an Axopatch 200B or Axopatch ID amplifier (Molecular Devices, USA), using the whole‐cell configuration. Cells were at least initially (except when recording I Na) perfused with an extracellular solution consisting of (in mM) 143 NaCl, 4 KCl, 1.8 CaCl2, 1.2 MgCl2, 5 glucose, and 10 HEPES (pH 7.4 with NaOH; osmolarity adjusted to 301 ± 3 mOsm). A slightly modified version was used for the rat ventricular CMs (in mM: 144 NaCl, 0.4 NaH2PO4, 4.0 KCl, 1.8 CaCl2, 0.53 MgSO4, 5.5 glucose, and 5.0 HEPES). Patch pipettes were pulled with a P‐2000 or P‐97 micropipette puller (Sutter Instruments, USA) from borosilicate glass capillaries and had resistances of between 2 and 4 MΩ when filled with any of the pipette solutions (see below). The data were filtered at 1 or 2 kHz and digitized at 10 kHz with acquisition and analysis performed by use of pClamp software (Versions 8–10; Molecular Devices; RRID:SCR_011323).
I CaL was recorded from hiPSC‐derived CMs (at room temperature, n = 2) and rat ventricular myocytes at 1 μM (n = 3; 5 cells) and at 10 μM (n = 4; 6 cells) in an extracellular solution supplemented with 4‐aminopyridine (3 mM) at 37 °C. The pipette solution used for hiPSC‐derived CMs consisted (in mM) (pH 7.2; osmolarity adjusted to 293 mOsm) 110 KCl, 40 KOH, 20 TEACI, 3 MgATP, 10 EGTA, and 5 HEPES. The composition of the pipette solution used for rat CMs was (in mM) 125 CsCl, 20 TEACI, 5 MgATP, 10 EGTA, and 10 HEPES; the pH was adjusted to 7.2 using CsOH. I CaL was evoked by a 400‐ms depolarization process to 0 mV from a holding potential of −40 mV every 5 s or, in the case of the rat CMs, by 400 ms; depolarizations to potentials ranging from −35 to 55 mV occurred after a prepulse to −40 mV, from the holding potential of −80 mV.
The effect of ORM-11372 on the inward calcium current (ICaL) in isolated rat cardiomyocytes. ICaL current was evoked by 400 ms-long depolarizing voltage pulses to various test potentials, ranging from -35 mV to 55 mV. The holding potential was -80 mV. A short prepulse to -40 mV served to inactivate the Na+ current (the top part of the panel A). Examples of originals currents are shown in the lower part of panel A, before and after 1 µM ORM-11372 exposure in an isolated rat myocyte. Panels B and C illustrate the current-voltage relation (I-V curves) of ICaL in the absence and presence of 1 µM and 10 µM ORM-11372 (panels B and C, […]
are means ± standard errors of the means.
(1 picture or pasted object on this page, not shown here)

[2] = tested on: guinea pig papillary muscle; assay: In vitro contraction dynamics in guinea pig papillary muscle; conditions: 1 Hz, 37°C
Description: Guinea pigs (both sex, body weight ranging 342–565 g, Dunkin Hartley, M&B A/S, Ry, Denmark) were used in the study. The animals were housed in solid bottom polycarbonate cages (Makrolon® IV, 385 × 590 × 200 mm) with stainless steel wire mesh lids, up to three animals of same sex per cage. Autoclaved aspen chips (Tapvei Ky, Kaavi, Finland) were used as bedding. A commercially available rodent SDS FD1 (P) SQC pellet diet (Special Diet Services Ltd, Witham, England) and tap water from the public supply (Espoon vesilaitos, Espoo, Finland) were available ad libitum in polycarbonate bottles (800–1,000 ml) with plastic caps (Scanbur A/S, Ejby, Denmark).
Guinea pigs were killed by a blow on the skull and the heart will be excised. Right ventricular papillary muscle was dissected and rinsed in ice‐cold Tyrode's solution. […]
The signal was acquired with a validated acquisition system ACFO v1.0 (Fision Oy, Finland). The following parameters were measured: twitch tension (Tw), rest tension (RT), time to peak tension (TTP), and half relaxation time (HRT). […]
The baseline twitch tensions were measured after a stabilization period of 20–40 min. Thereafter, vehicle (1.1% DMSO) or ORM‐11372 in Tyrode's solution was superfused into the cuvette for 15 min, and the effects were measured from the steady‐state level. […]

## Nc1cccc(-c2ccc(CNc3ccc(F)cc3)o2)c1 [ORM‐11372]
[1]; 1 µM, n=3, 5 cells
  effect on calcium current (ICaL) at various test potentials: did not change
[1]; 1 µM, test potential 0 mV, 5 cells, control -1375.4
  L-type calcium current amplitude, MEAN: -1268.0 pA
[1]; 1 µM, test potential 5 mV, 5 cells, control -1319.9
  L-type calcium current amplitude, MEAN: -1233.1 pA
[1]; 1 µM, test potential 10 mV, 5 cells, control -1195.5
  L-type calcium current amplitude, MEAN: -1106.0 pA
[1]; 1 µM, test potential 15 mV, 5 cells, control -1031.3
  L-type calcium current amplitude, MEAN: -942.5 pA
[1]; 1 µM, test potential 20 mV, 5 cells, control -839.7
  L-type calcium current amplitude, MEAN: -771.6 pA
[1]; 1 µM, test potential 25 mV, 5 cells, control -655.3
  L-type calcium current amplitude, MEAN: -598.7 pA
[1]; 1 µM, test potential 30 mV, 5 cells, control -482.4
  L-type calcium current amplitude, MEAN: -440.5 pA
[1]; 1 µM, test potential 35 mV, 5 cells, control -321.0
  L-type calcium current amplitude, MEAN: -290.5 pA
[1]; 1 µM, test potential 40 mV, 5 cells, control -184.5
  L-type calcium current amplitude, MEAN: -165.5 pA
[1]; 1 µM, test potential 45 mV, 5 cells, control -86.9
  L-type calcium current amplitude, MEAN: -75.9 pA
[1]; 1 µM, test potential 50 mV, 4 cells, control -2.1
  L-type calcium current amplitude, MEAN: -6.3 pA
[1]; 1 µM, test potential 55 mV, 4 cells, control 73.5
  L-type calcium current amplitude, MEAN: 65.1 pA
[1]; 1 µM, test potential -5 mV, 5 cells, control -1356.0
  L-type calcium current amplitude, MEAN: -1228.2 pA
[1]; 1 µM, test potential -10 mV, 5 cells, control -1170.3
  L-type calcium current amplitude, MEAN: -1150.4 pA
[1]; 1 µM, test potential -15 mV, 5 cells, control -958.3
  L-type calcium current amplitude, MEAN: -852.5 pA
[1]; 1 µM, test potential -20 mV, 5 cells, control -659.5
  L-type calcium current amplitude, MEAN: -595.2 pA
[1]; 1 µM, test potential -25 mV, 5 cells, control -416.8
  L-type calcium current amplitude, MEAN: -428.2 pA
[1]; 1 µM, test potential -30 mV, 5 cells, control -247.1
  L-type calcium current amplitude, MEAN: -254.7 pA
[1]; 1 µM, test potential -35 mV, 5 cells, control -143.0
  L-type calcium current amplitude, MEAN: -137.4 pA
[1]; 10 µM, n=4, 6 cells
  effect on calcium current (ICaL) at various test potentials: significantly decreased
[1]; 10 µM, n=4, 6 cells, listed as ORM-11372
  effect on calcium current (ICaL) at various test potentials: moderately decreased
[1]; 10 µM, test potential 0 mV, 6 cells, control -1895.4
  L-type calcium current amplitude, MEAN: -1170.0 pA
[1]; 10 µM, test potential 5 mV, 6 cells, control -1875.0
  L-type calcium current amplitude, MEAN: -1197.8 pA
[1]; 10 µM, test potential 10 mV, 6 cells, control -1771.9
  L-type calcium current amplitude, MEAN: -1118.9 pA
[1]; 10 µM, test potential 15 mV, 6 cells, control -1587.7
  L-type calcium current amplitude, MEAN: -1003.2 pA
[1]; 10 µM, test potential 20 mV, 6 cells, control -1357.7
  L-type calcium current amplitude, MEAN: -873.9 pA
[1]; 10 µM, test potential 25 mV, 6 cells, control -1116.0
  L-type calcium current amplitude, MEAN: -718.1 pA
[1]; 10 µM, test potential 30 mV, 6 cells, control -896.3
  L-type calcium current amplitude, MEAN: -561.5 pA
[1]; 10 µM, test potential 35 mV, 6 cells, control -698.8
  L-type calcium current amplitude, MEAN: -429.4 pA
[1]; 10 µM, test potential 40 mV, 6 cells, control -525.3
  L-type calcium current amplitude, MEAN: -320.9 pA
[1]; 10 µM, test potential 45 mV, 6 cells, control -374.5
  L-type calcium current amplitude, MEAN: -237.0 pA
[1]; 10 µM, test potential 50 mV, 6 cells, control -291.0
  L-type calcium current amplitude, MEAN: -189.1 pA
[1]; 10 µM, test potential 55 mV, 6 cells, control -158.4
  L-type calcium current amplitude, MEAN: -114.5 pA
[1]; 10 µM, test potential -5 mV, 6 cells, control -1762.2
  L-type calcium current amplitude, MEAN: -1043.1 pA
[1]; 10 µM, test potential -10 mV, 6 cells, control -1447.7
  L-type calcium current amplitude, MEAN: -807.4 pA
[1]; 10 µM, test potential -15 mV, 6 cells, control -1127.6
  L-type calcium current amplitude, MEAN: -525.5 pA
[1]; 10 µM, test potential -20 mV, 6 cells, control -920.0
  L-type calcium current amplitude, MEAN: -316.1 pA
[1]; 10 µM, test potential -25 mV, 6 cells, control -667.6
  L-type calcium current amplitude, MEAN: -184.1 pA
[1]; 10 µM, test potential -30 mV, 6 cells, control -368.9
  L-type calcium current amplitude, MEAN: -115.9 pA
[1]; 10 µM, test potential -35 mV, 6 cells, control -156.2
  L-type calcium current amplitude, MEAN: -64.1 pA
[1]; rat CMs, 1 μM, 0 mV, read-out: inhibition of inward I CaL
  inhibition at 1 µM: 7.8%
[1]; test potentials 0 to 40 mV
  inhibition at 10 µM: 36 to 39%
[1]; test potentials −35 to −20 mV
  inhibition at 10 µM: 59 to 69%
[2]
  half relaxation time: unchanged; also recorded: did not affect
[2]; compared with vehicle
  twitch tension: increased
